Eleven compounds from patent publication US12365687B2 (Hoffmann-La Roche Inc., priority 2021, dated 2025) can be followed below.

SMILES strings stand for the structures.

The target of assay [1] is α2β2γ1 GABAA receptor subtype (Homo sapiens (Human), UniProt P47869+Q8N1C3). The experiment in a line: Two-electrode voltage clamp electrophysiology in Xenopus oocytes expressing GABAA receptors (modulation of GABA EC20 current). Type of assay: cell-based. To be noted: for Efficacy (GABA)%: % modulation of GABA EC20 = 100*(Fold increase-1), α2β2γ1 oocytes, compound at approx. 30-fold Ki; for Fold increase h-GABA-A α2β2γ1 oocyte @ 30-fold Ki: Xenopus oocytes expressing α2β2γ1, compound at approx. 30-fold its Ki α2β2γ1, GABA EC20 current. An outline of the steps: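 Two-electrode voltage clamp at −80 mV, room temperature, 3-5 days after mRNA injection into oocytes. GABA applied at EC20 for 1.5 min, twice, with compound during second application; at least 3 oocytes per concentration. Efficacy = extremum of point-by-point current ratio, expressed as 100×(fold increase−1).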
A general note: Two-electrode voltage clamp holds a large cell at a set potential and records current.

The target in assay [2] is human GABAA α2β2γ1 receptor (Homo sapiens (Human), UniProt P47869+Q8N1C3). The experiment in a line: Radioligand binding assay for γ1-containing GABAA subtypes, [3H]RO7239181 competition (α2β2γ1).
For assay [3], the target named is human GABAA α1β3γ2 receptor (Homo sapiens (Human), UniProt P14867+P18507). The experiment in a line: Radioligand binding assay for γ2-containing GABAA subtypes, [3H]Flumazenil competition (α1β3γ2). To be noted: for γ2/γ1 Selectivity Ratio: Ki α1β3γ2 (nM)/Ki α2β2γ1 (nM); for LogSel: Log[Ki α1β3γ2 (nM)/Ki α2β2γ1 (nM)].
In assay [4] the target is human GABAA α5β2γ1 receptor (Homo sapiens (Human), UniProt P31644+Q8N1C3). The experiment in a line: Radioligand binding assay for γ1-containing GABAA subtypes, [3H]RO7239181 competition (α5β2γ1).
The mark [5] stands for this setting: Ki h-GABAA α2β2γ1, [3H]RO7239181 competition binding, human GABAA α2β2γ1.
[6] abbreviates: Ki h-GABAA α2β2γ1, displacement of [3H]RO7239181, membranes of HEK293F cells expressing human receptors, means of two determinations.

In general, Ki refers to a measure of affinity in units of concentration, obtained from inhibition or displacement. The low end stands for higher affinity, the high end for lower affinity. Take `Cc1nc2n(n1)-c1ccc(Cl)c(Cl)c1C(c1c(F)cccc1F)=NC2` [Example 32, 7,8-dichloro-6-(2,6-difluorophenyl)-2-methyl-4H-[1,2,4]triazolo[1,5-a][1,4]benzodiazepine]: in assay [1], the “Efficacy (GABA)%” value stood at 26% and the “Fold increase h-GABA-A α2β2γ1 oocyte @ 30-fold Ki” value was determined as 1.26. This compound gave an inhibition constant (Ki) in assay [2] (setting [5]) of 2.4 nM. This compound also registered a Ki in assay [2] (setting [6]) of 2.44 nM. Also, in assay [3], the affinity, expressed as Ki, was 163 nM; the “γ2/γ1 Selectivity Ratio” value amounted to 67.1; the LogSel came to 1.83. This compound also gave a Ki in assay [4] of 0.6 nM.

Regarding `Fc1cccc(F)c1C1=NCc2nc(C(F)F)nn2-c2ccc(Cl)c(Cl)c21` [Example 33, 7,8-dichloro-2-(difluoromethyl)-6-(2,6-difluorophenyl)-4H-[1,2,4]triazolo[1,5-a][1,4]benzodiazepine], in assay [1], the “Efficacy (GABA)%” value was determined as 56% and the “Fold increase h-GABA-A α2β2γ1 oocyte @ 30-fold Ki” value was found to be 1.56. In assay [2] (setting [5]), the Ki amounted to 10.8 nM. The same compound gave a Ki in assay [2] (setting [6]) of 10.8 nM. Further, in assay [3], the inhibition constant Ki was 659 nM, the “γ2/γ1 Selectivity Ratio” value came out at 61.2 and the LogSel was 1.79. The same compound displayed a Ki in assay [4] of 0.69 nM.

Consider `[2H]C([2H])([2H])NC(=O)c1nc2n(n1)-c1ccc(C(F)(F)F)c(Cl)c1C(c1c(F)cccc1F)=N[C@H]2C` [Example 34, (4S)-7-chloro-6-(2,6-difluorophenyl)-4-methyl-N-(trideuteriomethyl)-8-(trifluoromethyl)-4H-[1,2,4]triazolo[1,5-a][1,4]benzodiazepine-2-carboxamide], for which, in assay [1], the “Efficacy (GABA)%” value is on record as 71% and the “Fold increase h-GABA-A α2β2γ1 oocyte @ 30-fold Ki” value stood at 1.71. For the same compound, the Ki in assay [2] (setting [5]) turned out to be 14.3 nM. This compound gave a Ki in assay [2] (setting [6]) of 14.3 nM. For the same compound, in assay [3], the inhibition constant (Ki) is 2180 nM, the “γ2/γ1 Selectivity Ratio” value amounted to 152.4 and the LogSel is reported as 2.18. For the same compound, in assay [4], the Ki was 2.11 nM.

In the case of `C[C@@H]1N=C(c2c(F)cccc2F)c2c(ccc(Cl)c2Cl)-n2nc(C(N)=O)nc21` [Example 35, (4S)-7,8-dichloro-6-(2,6-difluorophenyl)-4-methyl-4H-[1,2,4]triazolo[1,5-a][1,4]benzodiazepine-2-carboxamide], in assay [1], the “Efficacy (GABA)%” value is 67%. Besides, the “Fold increase h-GABA-A α2β2γ1 oocyte @ 30-fold Ki” value in assay [1] was 1.67. The Ki was 6.5 nM in assay [2] (setting [5]), 6.53 nM in assay [2] (setting [6]), 778 nM in assay [3] and 0.73 nM in assay [4]. For the same compound, the “γ2/γ1 Selectivity Ratio” value in assay [3] is on record as 119.1. The LogSel in assay [3] was found to be 2.08.

`COC1CN(C(=O)c2nc3n(n2)-c2ccc(C(F)(F)F)c(Cl)c2C(c2c(F)cccc2F)=NC3)C1` [Example 37, [7-chloro-6-(2,6-difluorophenyl)-8-(trifluoromethyl)-4H-[1,2,4]triazolo[1,5-a][1,4]benzodiazepin-2-yl]-(3-methoxyazetidin-1-yl)methanone]: in assay [1], the “Efficacy (GABA)%” value was found to be 47% and the “Fold increase h-GABA-A α2β2γ1 oocyte @ 30-fold Ki” value is recorded as 1.47. In assay [2] (setting [5]), this compound had a Ki of 4.5 nM. In assay [2] (setting [6]), the affinity corresponds to a Ki of 4.49 nM. Besides, in assay [3], the affinity corresponds to a Ki of 772 nM, the “γ2/γ1 Selectivity Ratio” value turned out to be 171.8 and the LogSel came out at 2.24. This compound also returned a Ki in assay [4] of 1.8 nM.

Take `COC1CN(C(=O)c2nc3n(n2)-c2ccc(Cl)c(Cl)c2C(c2ncccc2F)=N[C@H]3C)C1` [Example 38, [(4S)-7,8-dichloro-6-(3-fluoro-2-pyridyl)-4-methyl-4H-[1,2,4]triazolo[1,5-a][1,4]benzodiazepin-2-yl]-(3-methoxyazetidin-1-yl)methanone]: in assay [1], the “Efficacy (GABA)%” value turned out to be 116% and the “Fold increase h-GABA-A α2β2γ1 oocyte @ 30-fold Ki” value worked out at 2.16. In assay [2] (setting [5]), this compound displayed a Ki of 28.2 nM. Moreover, the inhibition constant (Ki) in assay [2] (setting [6]) was 28.2 nM. In assay [3], the Ki came out at 2200 nM, the “γ2/γ1 Selectivity Ratio” value came out at 77.8 and the LogSel was 1.89. In addition, in assay [4], the Ki worked out at 4.46 nM.

As to `[2H]C([2H])([2H])OC1CN(C(=O)c2nc3n(n2)-c2ccc(Cl)c(Cl)c2C(c2ncccc2F)=N[C@H]3C)C1` [Example 39, [(4S)-7,8-dichloro-6-(3-fluoro-2-pyridyl)-4-methyl-4H-[1,2,4]triazolo[1,5-a][1,4]benzodiazepin-2-yl]-[3-(trideuteriomethoxy)azetidin-1-yl]methanone], in assay [1], the “Efficacy (GABA)%” value was determined as 89% and the “Fold increase h-GABA-A α2β2γ1 oocyte @ 30-fold Ki” value is recorded as 1.89. Also, the inhibition constant (Ki) in assay [2] (setting [5]) turned out to be 17.7 nM. In assay [2] (setting [6]), this compound registered a Ki of 17.7 nM. Further, in assay [3], the affinity corresponds to a Ki of 4200 nM, the “γ2/γ1 Selectivity Ratio” value was 237.9 and the LogSel is recorded as 2.38. The same compound showed a Ki in assay [4] of 6.85 nM.

As for `C[C@@H]1N=C(c2c(F)cccc2F)c2c(ccc(Cl)c2Cl)-n2nc(C(=O)N3CC(F)C3)nc21` [Example 40, [(4S)-7,8-dichloro-6-(2,6-difluorophenyl)-4-methyl-4H-[1,2,4]triazolo[1,5-a][1,4]benzodiazepin-2-yl]-(3-fluoroazetidin-1-yl)methanone], in assay [1], the “Efficacy (GABA)%” value was 89% and the “Fold increase h-GABA-A α2β2γ1 oocyte @ 30-fold Ki” value came to 1.89. Affinity in assay [2] (setting [5]) was put at a Ki of 7.4 nM. Further, the Ki in assay [2] (setting [6]) is 7.35 nM. Also, in assay [3], the inhibitory constant (Ki) was determined as 672 nM, the “γ2/γ1 Selectivity Ratio” value amounted to 91.4 and the LogSel was 1.96. This compound also yielded a Ki in assay [4] of 0.9 nM.

For `C[C@@H]1N=C(c2c(F)cccc2F)c2c(ccc(Cl)c2Cl)-n2nc(C(=O)N3CC(C#N)C3)nc21` [Example 41, 1-[(4S)-7,8-dichloro-6-(2,6-difluorophenyl)-4-methyl-4H-[1,2,4]triazolo[1,5-a][1,4]benzodiazepine-2-carbonyl]azetidine-3-carbonitrile], in assay [1], the “Efficacy (GABA)%” value is 67% and the “Fold increase h-GABA-A α2β2γ1 oocyte @ 30-fold Ki” value came to 1.67. In assay [2] (setting [5]), the Ki is 3.3 nM. This compound also showed a Ki in assay [2] (setting [6]) of 3.28 nM. Also, in assay [3], the inhibition constant Ki came out at 389 nM, the “γ2/γ1 Selectivity Ratio” value was 118.6 and the LogSel was 2.07. In addition, in assay [4], the inhibitory constant (Ki) came to 0.74 nM.

With `C[C@@H]1N=C(c2ncccc2F)c2c(ccc(Cl)c2Cl)-n2nc(C(=O)N3CCC3)nc21` [Example 42, azetidin-1-yl-[(4S)-7,8-dichloro-6-(3-fluoro-2-pyridyl)-4-methyl-4H-[1,2,4]triazolo[1,5-a][1,4]benzodiazepin-2-yl]methanone], in assay [1], the “Efficacy (GABA)%” value is 114% and the “Fold increase h-GABA-A α2β2γ1 oocyte @ 30-fold Ki” value came to 2.14. The compound further returned a Ki in assay [2] (setting [5]) of 50.1 nM. The compound also showed a Ki in assay [2] (setting [6]) of 50.1 nM. Moreover, in assay [3], the inhibition constant Ki was determined as 2630 nM, the “γ2/γ1 Selectivity Ratio” value was 52.5 and the LogSel is 1.72. Also, the affinity in assay [4], expressed as Ki, was 4.24 nM.

With `C[C@@H]1N=C(c2c(F)cccc2F)c2c(ccc(Cl)c2Cl)-n2nc(C(=O)N3CC[C@H](O)C3)nc21` [Example 43, [(4S)-7,8-dichloro-6-(2,6-difluorophenyl)-4-methyl-4H-[1,2,4]triazolo[1,5-a][1,4]benzodiazepin-2-yl]-[(3S)-3-hydroxypyrrolidin-1-yl]methanone], in assay [1], the “Efficacy (GABA)%” value is 71% and the “Fold increase h-GABA-A α2β2γ1 oocyte @ 30-fold Ki” value came out at 1.71. The same compound displayed a Ki in assay [2] (setting [5]) of 4.7 nM. In assay [2] (setting [6]), the Ki was found to be 4.75 nM. In assay [3], the Ki worked out at 837 nM, the “γ2/γ1 Selectivity Ratio” value is given as 176.3 and the LogSel was 2.25. In addition, in assay [4], the Ki stood at 1.26 nM.
